From patent publication US20100009970A1, “COMPOSITIONS AND METHODS FOR TREATMENT OF VIRAL DISEASES” (Combinatorx (Singapore) Pte. Ltd., priority 2008, published 2010) come the findings set out here.

Counter-ions that a name gives are not always drawn.

The subject of the experiment is Huh7 cells expressing a subgenomic RNA replicon of Con1 (genotype 1b) sequence origin. The experiment in a line: microbe, parasite or virus in culture. The following applies: Hepatitis C virus; for IC50: Huh-7.

The IC50 is the concentration that inhibits the measured activity by half. `CC(CN(C)C)CN1c2ccccc2CCc2ccccc21` (centres unmarked) [Trimipramine (e.g., maleate), Trimipramine, reference compound] had an IC50 of 15.6 µM.

For the molecule `C[C@@H]1CC[C@H]2[C@@H](C)C(=O)O[C@@H]3O[C@]4(C)CC[C@@H]1[C@]32OO4` [Artemisinin, artemisinin, reference compound], inhibition was half-maximal at 4.45 µM (IC50).

In the case of `Oc1ccc(O)cc1` [Hydroquinone, reference compound], the IC50 came to 14 µM.

The molecule `COc1cc(NC(=O)Nc2cccc(CNC(=O)O[C@H]3CCOC3)c2)ccc1-c1cnco1` [Merimepodib (VX-497), merimepodib, reference compound] registered an IC50 of 0.475 µM. This IC50 lies about 29-fold lower than the previous one.

`CCOC(=O)c1c(CSc2ccccc2)n(C)c2cc(Br)c(O)c(CN(C)C)c12` [Arbidol, arbidol, reference compound] showed a 50% inhibitory concentration (IC50) of 12.2 µM.

`CN(C)CCCOc1nn(Cc2ccccc2)c2ccccc12` [Benzydamine (e.g., hydrochloride), benzydamine, reference compound] returned a half-inhibitory concentration (IC50) of 9 µM. This IC50 and that of the molecule before are within 1.5-fold of each other.

`O=c1[nH]c(=O)n([C@H]2C[C@H](O)[C@@H](CO)O2)cc1C(F)(F)F` [Trifluridine, trifluridine, reference compound] yielded an IC50 of 0.38 µM.

Take `CO[C@H]1/C=C/O[C@@]2(C)Oc3c(C)c(O)c4c(c3C2=O)C2=NC3(CCN(CC(C)C)CC3)NC2=C(NC(=O)/C(C)=C\C=C\[C@H](C)[C@H](O)[C@@H](C)[C@@H](O)[C@@H](C)[C@H](OC(C)=O)[C@@H]1C)C4=O` [Rifabutin, reference compound]: the IC50 was found to be 17.2 µM. This IC50 lies about 45-fold higher than the previous one.

`CC(=O)[C@H]1CC[C@H]2[C@@H]3C=CC4=CC(=O)CC[C@@]4(C)[C@@H]3CC[C@]12C` [Dydrogesterone, reference compound]: half-maximal inhibition (IC50) required 2.75 µM.

For the molecule `Nc1ccn([C@@H]2O[C@H](CO)[C@@H](O)[C@@H]2O)c(=O)n1` [Cytarabine, reference compound], the concentration for half-maximal inhibition (IC50) is 0.117 µM.

`Oc1cccc2c(O)nccc12` [1,5-Isoquinolinediol, reference compound] showed a concentration for half-maximal inhibition (IC50) of 25.9 µM.

`Nc1nc(Cl)nc2c1ncn2[C@H]1C[C@H](O)[C@@H](CO)O1` [Cladribine, 2-chloro-2′-deoxyadenosine, reference compound]: the half-maximal inhibitory concentration (IC50) worked out at 0.112 µM.

On to `CCOc1cc(N)c(Cl)cc1C(=O)NCC1CN(Cc2ccc(F)cc2)CCO1` (centres unmarked) [Mosapride (e.g., citrate), mosapride, reference compound], for which half-maximal inhibition (IC50) required 10.9 µM.

In turn, `CC(C=NNC(=N)N)=NNC(=N)N` [Methylglyoxal bis(guanylhydrazone) dihydrochloride hydrate, reference compound] displayed an IC50 of 10.8 µM.

Consider `C[C@H]1CC(=O)C[C@@H]2CC[C@H]3[C@@H]4CC[C@H](O)[C@@]4(C)CC[C@@H]3[C@]21C` [Mesterolone, mesterolone, reference compound], for which inhibition was half-maximal at 5.18 µM (IC50).

`CCc1c2c(nc3ccc(OC(=O)N4CCC(N5CCCCC5)CC4)cc13)-c1cc3c(c(=O)n1C2)COC(=O)[C@]3(O)CC` [Irinotecan (e.g., hydrochloride), irinotecan (CPT-11), reference compound] registered an IC50 of 1.56 µM.

Consider `COc1cc(C(=O)OCCCN2CCCN(CCCOC(=O)c3cc(OC)c(OC)c(OC)c3)CC2)cc(OC)c1OC` [Dilazep (e.g., dihydrochloride), Dilazep, reference compound], for which half-maximal inhibition (IC50) was put at 13.9 µM.

`CC(C)(C)C(=O)OCOP(=O)(COCCn1cnc2c(N)ncnc21)OCOC(=O)C(C)(C)C` [Adefovir (e.g., dipivoxil), adefovir dipivoxil, reference compound]: the half-inhibitory concentration (IC50) amounted to 0.319 µM.

The molecule `CC1(C)C(/C=C/C=C/C=C/C=C2\N(CCCCS(=O)(=O)O)c3ccc4ccccc4c3C2(C)C)=[N+](CCCCS(=O)(=O)[O-])c2ccc3ccccc3c21` [Indocyanine Green, reference compound] yielded an IC50 of 8.13 µM.

In turn, `CC[C@]1(O)C[C@H]2CN(CCc3c([nH]c4ccccc34)[C@@](C(=O)OC)(c3cc4c(cc3OC)N(C=O)[C@H]3[C@@](O)(C(=O)OC)[C@H](OC(C)=O)[C@]5(CC)C=CCN6CC[C@]43[C@@H]65)C2)C1` [Vincristine (e.g., sulfate), Vincristine, reference compound] came in with an IC50 of 0.02 µM. Compared with the last molecule, the IC50 is about 410-fold lower.

For the molecule `CC[C@H](C)C(=O)O[C@H]1CCC=C2C=C[C@H](C)[C@H](CC[C@@H]3C[C@@H](O)CC(=O)O3)[C@H]21` [Mevastatin, reference compound], the 50% inhibitory concentration (IC50) turned out to be 3.45 µM.

`CN/C(=N\c1ccc(C2=NNC(=O)CC2C)cc1)NC#N` (centres unmarked) [Siguazodan, reference compound] had a 50% inhibitory concentration (IC50) of 2.2 µM.

With `O=c1[nH]cc(F)c(=O)[nH]1` [Fluorouracil, reference compound], the IC50 amounted to 18.7 µM.

On to `CCCC1O[C@@H]2C[C@H]3[C@@H]4CCC5=CC(=O)C=C[C@]5(C)[C@H]4[C@@H](O)C[C@]3(C)[C@]2(C(=O)CO)O1` (some centres unmarked) [Budesonide, budesonide, reference compound], for which the midpoint of inhibition, the IC50, lay at 15.7 µM.

As to `c1ccc(-c2ccc(C(c3ccccc3)n3ccnc3)cc2)cc1` (centres unmarked) [Bifonazole, reference compound], the IC50 came to 6.15 µM.

`O=c1[nH]c(=O)n([C@H]2C[C@H](O)[C@@H](CO)O2)cc1F` [Floxuridine, floxuridine, reference compound] had a concentration for half-maximal inhibition (IC50) of 0.0045 µM.

The molecule `CN1[C@@H]2CC[C@H]1C[C@@H](OC1c3ccccc3CCc3ccccc31)C2` [Deptropine (e.g., citrate), deptropine, reference compound] showed an IC50 of 11.1 µM.

The molecule `CN1CCCCC1CCN1c2ccccc2Sc2ccc([S+](C)[O-])cc21` (centres unmarked) [Mesoridazine (e.g., Besylate), mesoridazine, reference compound] had an IC50 of 19 µM.

`CN(C)CCCC1(c2ccc(F)cc2)OCc2cc(C#N)ccc21` (centres unmarked) [Citalopram (e.g., hydrobromide), Citalopram, reference compound] showed a 50% inhibitory concentration (IC50) of 27.3 µM.

For the molecule `CCC(C)(C)C(=O)O[C@H]1C[C@@H](C)C=C2C=C[C@H](C)[C@H](CC[C@@H](O)C[C@@H](O)CC(=O)O)[C@H]21` [Simvastatin hydroxy acid, ammonium salt, simvastatin hydroxy acid, ammonium salt, reference compound], it took 13.4 µM to reach half-maximal inhibition (IC50).

As to `CCCCOc1ccc(CC(=O)NO)cc1` [Bufexamac, bufexamac, reference compound], it took 8.29 µM to reach half-maximal inhibition (IC50). Compared with the last molecule, the IC50 is about 1.6-fold lower.

The molecule `CCCCC(CC)COC(=O)/C=C/c1ccc(OC)cc1` (centres unmarked) [Octyl Methoxycinnamate, reference compound] showed an IC50 of 1.24 µM.

`CCCCOc1cc(C(=O)OCCN(CC)CC)ccc1N` [Benoxinate (e.g., hydrochloride), benoxinate, reference compound] registered an IC50 of 3.02 µM.

Regarding `Nc1nc[nH]n1` [Amitrole], the IC50 was 14.6 µM.

Take `CNCc1cc(S(N)(=O)=O)ccc1Oc1ccc(Br)cc1` [Compound 44, 4-(4-bromophenoxy)-3-((methylamino)methyl)benzenesulfonamide]: the Emax (Huh-7, read-out: Max Effect@CC30 (inhibition)) stood at 32.1%.

Molecule `CCN(CC)C(=S)SSC(=S)N(CC)CC` [Disulfiram, reference compound] came in with an IC50 of 5.5 µM.

Molecule `COc1cc(CNC(=O)CCCC/C=C/C(C)C)ccc1O` [Capsaicin, reference compound] registered an IC50 of 11.7 µM.

Consider `C[C@@]1(O)[C@H](O)[C@@H](CO)O[C@H]1n1ccc(N)nc1=O` [2′-C-Methylcytidine, 2′-C-methylcytidine, reference compound], for which the IC50 worked out at 1.63 µM. This IC50 is about 7.2-fold lower than that of the molecule before.
